Measurements as given in paper PMC8544286, “Screening and Identification of a Novel Anti-tuberculosis Compound That Targets Deoxyuridine 5′-Triphosphate Nucleotidohydrolase” (Frontiers in Microbiology, 2021).
Values after ≈ are worked out from the molar mass of the structure shown. Where two headings read alike, the source gives them in different places.

What was measured:
[1] = system: sensitive strain STB-FJ05349; assay: Microplate alamar blue assay (MABA), STB-FJ05349; type: cell-based; settings: Mycobacterium tuberculosis, STBFJ05349, 168 h
human dUTPase [2] = target: T1, human dUTPase (Homo sapiens, UniProt P33316); assay: Surface plasmon resonance (SPR), human dUTPase; type: binding; settings: human dUTPase on CM5 chip
T1 sequence (P33316 other isoform, or with tags, fused parts or gaps): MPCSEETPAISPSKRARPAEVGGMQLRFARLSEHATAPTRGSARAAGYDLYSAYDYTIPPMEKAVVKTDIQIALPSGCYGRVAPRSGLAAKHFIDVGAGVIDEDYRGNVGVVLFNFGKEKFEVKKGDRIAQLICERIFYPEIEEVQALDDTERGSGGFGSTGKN

[3] = system: M. tuberculosis standard strain H37Rv; assay: Microplate alamar blue assay (MABA), H37Rv; type: cell-based; settings: Mycobacterium tuberculosis, 168 h
human dUTPase [4] = target: T1, human dUTPase; assay: biochemical
[5] = system: sensitive strain STB-FJ05060; assay: Microplate alamar blue assay (MABA), STB-FJ05060; type: cell-based; settings: Mycobacterium tuberculosis, STBFJ05060, 168 h
in vitro = type: cell-based; settings: 24 h, CCK-8
Procedure: MRC-5, Vero E6, and Caco-2 cells were tested. […] Meanwhile, 2% DMSO was used as a negative control. After incubation for 24 h, 2-(2-methoxy-4-nitrophenyl)-3-(4-nitrophenyl)-5-(2,4-disulfophenyl)-2H-tetrazolium, monosodium salt (WST-8) was added. The experimental method referred to the kit instructions. All the experiments were repeated three times.

[6] = target: M. tuberculosis dUTPase (Mt-dUTPase) (Mycobacterium tuberculosis, UniProt P9WNS5); type: biochemical
M. tuberculosis dUTPase (Mt-dUTPase), sequence (P9WNS5 whole entry): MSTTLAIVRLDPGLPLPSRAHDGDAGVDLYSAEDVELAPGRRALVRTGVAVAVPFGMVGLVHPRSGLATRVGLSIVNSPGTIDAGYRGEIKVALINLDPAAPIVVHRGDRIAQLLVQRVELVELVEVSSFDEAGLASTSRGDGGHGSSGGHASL

[7] = STB-FJ05349, MABA, 7 days at 37°C, read-out: MIC
[8] = H37Rv, MABA, 7 days at 37°C, read-out: MIC
[9] = STB-FJ05060, MABA, 7 days at 37°C, read-out: MIC

For `C=CCn1c(/C=C/c2ccccc2)nc2ccccc21` [F0414], the MIC [1, 7] was 4 µg/mL (≈ 15.4 µM), the “SPR binding to human dUTPase” value (human dUTPase [2]) was “almost no RU signals” and the MIC [3, 8] was 4 µg/mL (≈ 15.4 µM). It also gave an IC50 (human dUTPase [4]; luminescence readout) of 3.18 ± 0.96 µM, an IC50 (human dUTPase [4]; same IC50 printed in μg/mL) of 3.19 µM and an MIC [5, 9] of 4 µg/mL (≈ 15.4 µM). It also gave a CC50 (in vitro; African green monkey, Vero E6 cells) of over 200 µM, a CC50 (in vitro; African green monkey, Vero E6 cells, approximate conversion of >200 μM) of over 52 µg/mL and a CC50 (in vitro; human, Caco2 cells) of over 200 µM. It also gave a CC50 (in vitro; human, Caco2 cells, approximate conversion of >200 μM) of over 52 µg/mL, a CC50 (in vitro; human, MRC-5 cells) of over 200 µM and a CC50 (in vitro; human, MRC-5 cells, approximate conversion of >200 μM) of over 52 µg/mL.

Work on `NNC(=O)c1ccncc1` [Isoniazid] yielded an MIC [1, 7] of 0.5 µg/mL (≈ 3.65 µM), an MIC [3, 8] of 0.25 µg/mL (≈ 1.82 µM) and an MIC [5, 9] of 0.5 µg/mL (≈ 3.65 µM).

`CO[C@H]1/C=C/O[C@@]2(C)Oc3c(C)c(O)c4c(O)c(c(/C=N/N5CCN(C)CC5)c(O)c4c3C2=O)NC(=O)/C(C)=C\C=C\[C@H](C)[C@H](O)[C@@H](C)[C@@H](O)[C@@H](C)[C@H](OC(C)=O)[C@@H]1C` [Rifampicin] gave an MIC [1] of 0.5 µg/mL (≈ 0.608 µM), an MIC ([3]; H37RV) of 0.25 µg/mL (≈ 0.304 µM) and an MIC [5] of 0.5 µg/mL (≈ 0.608 µM).

With `O=c1ccn([C@H]2C[C@H](O)[C@@H](COC(c3ccccc3)(c3ccccc3)c3ccccc3)O2)c(=O)[nH]1` [Trt-dU] the IC50 ([6]; compound pre-incubated with enzyme 1 h at room temperature, luminescence readout) was 1040 ± 80 nM and the “IC50 (Mt-dUTPase)” value ([6]; same IC50 printed in μg/ml) was 0.49 ± 0.02 µg/mL (≈ 1.04 µM).
